# From US12226424B2, “Target protein degradation compounds, their anti-tumor use, their intermediates and use of intermediates” (ShanghaiTech University, priority 2018, dated 2025)
# Experiments:
# c-ABL [1] = molecular target: T1, c-ABL (Homo sapiens, UniProt P00519); test: Western-blot detection of c-ABL protein degradation (FIGS. 1-15); type: cell-based
# BCR-ABL [2] = molecular target: T2, BCR-ABL (Homo sapiens, UniProt P00519); test: Western-blot detection of BCR-ABL protein degradation (FIGS. 1-15); type: cell-based
# BCR-ABL [3] = molecular target: T2, BCR-ABL; test: Western-blot half-degradation concentration (DC50) / degradation of BCR-ABL in K562 cells; settings: 24 h
# c-ABL [4] = molecular target: T1, c-ABL; test: Western-blot degradation of c-ABL in K562 cells; settings: 24 h
# ER protein = molecular target: T3, ER protein (Homo sapiens, UniProt P03372); test: Western blot half degradation concentration (DC50) of ER protein in T-47D cells; type: cell-based; settings: 24 h, read-out: DC50 (nM)/T-47D cell line
# T3 construct: detect the expression of ER protein in T-47D cells; endogenous in cells; host or cells: T-47D
# T3 sequence (P03372 1-595): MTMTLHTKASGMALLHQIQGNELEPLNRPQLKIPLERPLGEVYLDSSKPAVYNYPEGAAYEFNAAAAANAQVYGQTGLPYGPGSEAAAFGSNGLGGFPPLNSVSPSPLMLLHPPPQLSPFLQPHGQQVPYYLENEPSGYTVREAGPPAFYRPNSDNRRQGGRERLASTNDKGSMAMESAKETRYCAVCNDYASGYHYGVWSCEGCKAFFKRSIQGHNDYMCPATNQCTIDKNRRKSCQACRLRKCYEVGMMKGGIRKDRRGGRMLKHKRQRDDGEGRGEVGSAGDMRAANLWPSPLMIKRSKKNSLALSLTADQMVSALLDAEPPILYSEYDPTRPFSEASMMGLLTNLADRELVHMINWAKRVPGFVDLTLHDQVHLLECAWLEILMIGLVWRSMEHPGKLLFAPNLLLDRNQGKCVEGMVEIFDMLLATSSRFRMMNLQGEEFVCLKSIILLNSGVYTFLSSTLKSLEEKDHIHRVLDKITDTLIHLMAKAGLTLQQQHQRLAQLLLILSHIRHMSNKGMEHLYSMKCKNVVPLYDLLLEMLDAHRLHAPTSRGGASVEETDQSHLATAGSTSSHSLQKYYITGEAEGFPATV
# Protocol: ER positive cells T-47D cells (human breast cancer cells) were purchased from the Cell Bank of the Chinese Academy of Sciences;
# The cells used in this present disclosure were cultured in a 37° C. incubator containing 5% CO2. The complete cell culture medium was RPMI 1640 medium with 10% fetal bovine serum, and the final concentrations of penicillin and streptomycin were 100 U/mL, respectively. All cells were tested negative for mycoplasma with mycoplasma detection kit before the experiment.
# Western Blot Determination of the Half Degradation Concentration (DC50) of the PROTAD Compounds on Target Proteins
# The PROTAD compounds of the present disclosure were tested at 5 concentration of 1 nM, 10 nM, 50 nM, 100 nM, 500 nM, respectively, or 5 concentration gradients of 0.04 nM, 0.2 nM, 1 nM, 10 nM, 50 nM, and DMSO and commercial parent inhibitor groups (tamoxifen, toremifene) were set as negative and positive controls at the same time. After the drug treatment for 24 h, cells were washed twice with PBS, and lyzed by adding 50 μL of SDS lysate to each well for lysis on ice for 5 min.
# BRD4 [5] = molecular target: T4, BRD4 (Homo sapiens, UniProt O60885); test: Western-blot degradation of BRD4 in MV-4-11 cells; type: cell-based; settings: 24 hours
# Description: (§1) Western-Blot Determination of the Half-Degradation Concentration (DC50) of the PROTAD Compounds on the Target Proteins
# (§2) The supernatant was aspirated as total cell protein extracted.
# BRD2 [6] = molecular target: T5, BRD2 (Homo sapiens, UniProt P25440); test: Western-blot half-degradation concentration (DC50) / degradation of BRD2 in MV-4-11 cells; type: cell-based; settings: 24 hours
# Description: as §1, §2
# BRD4 [7] = molecular target: T4, BRD4; test: Western-blot detection of BRD4 protein degradation (FIGS. 16a-c); type: cell-based
# BRD2 [8] = molecular target: T5, BRD2; test: Western-blot detection of BRD2 protein degradation (FIGS. 16a-c); type: cell-based
# T5 sequence (P25440 whole entry): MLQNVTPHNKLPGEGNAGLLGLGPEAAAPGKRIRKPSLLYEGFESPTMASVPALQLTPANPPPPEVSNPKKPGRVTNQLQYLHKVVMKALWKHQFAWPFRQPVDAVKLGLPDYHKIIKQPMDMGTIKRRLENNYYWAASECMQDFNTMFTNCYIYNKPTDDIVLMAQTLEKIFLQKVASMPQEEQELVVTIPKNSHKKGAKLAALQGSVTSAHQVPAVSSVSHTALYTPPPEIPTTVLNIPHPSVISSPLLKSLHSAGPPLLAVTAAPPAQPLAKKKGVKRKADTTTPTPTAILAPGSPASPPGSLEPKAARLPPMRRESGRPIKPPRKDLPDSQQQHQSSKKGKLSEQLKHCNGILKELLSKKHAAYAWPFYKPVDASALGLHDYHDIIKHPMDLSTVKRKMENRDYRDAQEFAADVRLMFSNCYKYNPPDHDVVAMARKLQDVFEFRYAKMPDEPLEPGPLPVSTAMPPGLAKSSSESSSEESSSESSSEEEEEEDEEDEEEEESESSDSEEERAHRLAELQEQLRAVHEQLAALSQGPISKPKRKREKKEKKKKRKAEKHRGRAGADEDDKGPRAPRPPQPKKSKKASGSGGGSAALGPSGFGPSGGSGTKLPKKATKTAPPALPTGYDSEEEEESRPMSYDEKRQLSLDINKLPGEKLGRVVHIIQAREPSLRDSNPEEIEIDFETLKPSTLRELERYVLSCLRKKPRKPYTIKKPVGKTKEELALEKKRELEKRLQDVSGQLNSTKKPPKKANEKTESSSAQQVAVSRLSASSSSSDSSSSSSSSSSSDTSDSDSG
# T2 sequence (P00519 with tags, fused parts or gaps): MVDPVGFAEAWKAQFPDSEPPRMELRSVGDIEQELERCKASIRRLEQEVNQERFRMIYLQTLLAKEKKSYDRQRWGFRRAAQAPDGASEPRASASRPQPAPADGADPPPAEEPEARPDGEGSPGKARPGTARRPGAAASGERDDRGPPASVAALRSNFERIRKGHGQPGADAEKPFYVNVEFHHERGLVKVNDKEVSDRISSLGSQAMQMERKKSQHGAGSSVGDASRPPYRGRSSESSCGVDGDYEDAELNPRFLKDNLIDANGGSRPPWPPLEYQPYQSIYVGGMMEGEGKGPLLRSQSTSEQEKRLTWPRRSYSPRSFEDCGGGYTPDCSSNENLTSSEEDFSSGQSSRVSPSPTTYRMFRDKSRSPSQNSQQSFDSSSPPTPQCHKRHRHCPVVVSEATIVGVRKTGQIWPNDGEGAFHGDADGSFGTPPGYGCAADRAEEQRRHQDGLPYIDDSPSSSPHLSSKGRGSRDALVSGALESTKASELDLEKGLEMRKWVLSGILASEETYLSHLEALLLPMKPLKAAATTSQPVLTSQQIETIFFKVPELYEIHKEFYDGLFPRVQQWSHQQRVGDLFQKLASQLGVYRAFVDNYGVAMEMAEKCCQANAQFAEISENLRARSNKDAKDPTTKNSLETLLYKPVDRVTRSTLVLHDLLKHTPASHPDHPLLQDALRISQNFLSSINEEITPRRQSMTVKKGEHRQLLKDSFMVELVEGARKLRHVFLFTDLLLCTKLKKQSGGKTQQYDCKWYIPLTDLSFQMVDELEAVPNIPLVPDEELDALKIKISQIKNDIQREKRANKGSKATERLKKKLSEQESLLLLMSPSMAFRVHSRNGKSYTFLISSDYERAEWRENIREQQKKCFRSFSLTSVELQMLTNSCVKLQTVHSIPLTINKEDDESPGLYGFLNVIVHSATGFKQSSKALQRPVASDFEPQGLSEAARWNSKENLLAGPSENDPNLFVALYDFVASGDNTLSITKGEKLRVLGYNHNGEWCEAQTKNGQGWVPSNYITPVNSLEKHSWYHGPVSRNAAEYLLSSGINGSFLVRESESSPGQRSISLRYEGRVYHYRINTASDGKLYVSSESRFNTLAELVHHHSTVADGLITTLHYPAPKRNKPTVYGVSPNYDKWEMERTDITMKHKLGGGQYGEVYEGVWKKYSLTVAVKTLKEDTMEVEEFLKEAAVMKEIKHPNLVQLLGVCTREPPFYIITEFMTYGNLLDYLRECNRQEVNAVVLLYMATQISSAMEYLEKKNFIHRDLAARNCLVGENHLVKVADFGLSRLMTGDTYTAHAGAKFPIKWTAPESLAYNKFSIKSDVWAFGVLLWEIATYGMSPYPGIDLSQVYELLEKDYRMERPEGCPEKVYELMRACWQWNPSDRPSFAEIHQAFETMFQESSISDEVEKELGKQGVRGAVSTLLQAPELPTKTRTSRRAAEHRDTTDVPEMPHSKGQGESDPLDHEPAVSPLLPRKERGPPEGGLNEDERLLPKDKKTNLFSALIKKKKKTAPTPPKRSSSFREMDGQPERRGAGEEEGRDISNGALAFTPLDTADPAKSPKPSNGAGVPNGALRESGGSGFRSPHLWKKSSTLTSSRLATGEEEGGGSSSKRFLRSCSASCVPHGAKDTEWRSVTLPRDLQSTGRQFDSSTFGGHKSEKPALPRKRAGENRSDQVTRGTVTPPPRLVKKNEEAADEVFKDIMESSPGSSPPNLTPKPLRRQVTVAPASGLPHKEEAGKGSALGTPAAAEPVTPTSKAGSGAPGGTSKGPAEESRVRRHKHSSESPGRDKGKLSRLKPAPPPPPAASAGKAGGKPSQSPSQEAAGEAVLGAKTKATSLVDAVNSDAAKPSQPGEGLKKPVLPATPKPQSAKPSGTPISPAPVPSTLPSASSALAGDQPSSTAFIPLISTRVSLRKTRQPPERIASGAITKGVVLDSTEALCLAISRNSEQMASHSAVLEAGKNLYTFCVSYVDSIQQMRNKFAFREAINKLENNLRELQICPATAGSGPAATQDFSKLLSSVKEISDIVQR
# T1 sequence (P00519 whole entry): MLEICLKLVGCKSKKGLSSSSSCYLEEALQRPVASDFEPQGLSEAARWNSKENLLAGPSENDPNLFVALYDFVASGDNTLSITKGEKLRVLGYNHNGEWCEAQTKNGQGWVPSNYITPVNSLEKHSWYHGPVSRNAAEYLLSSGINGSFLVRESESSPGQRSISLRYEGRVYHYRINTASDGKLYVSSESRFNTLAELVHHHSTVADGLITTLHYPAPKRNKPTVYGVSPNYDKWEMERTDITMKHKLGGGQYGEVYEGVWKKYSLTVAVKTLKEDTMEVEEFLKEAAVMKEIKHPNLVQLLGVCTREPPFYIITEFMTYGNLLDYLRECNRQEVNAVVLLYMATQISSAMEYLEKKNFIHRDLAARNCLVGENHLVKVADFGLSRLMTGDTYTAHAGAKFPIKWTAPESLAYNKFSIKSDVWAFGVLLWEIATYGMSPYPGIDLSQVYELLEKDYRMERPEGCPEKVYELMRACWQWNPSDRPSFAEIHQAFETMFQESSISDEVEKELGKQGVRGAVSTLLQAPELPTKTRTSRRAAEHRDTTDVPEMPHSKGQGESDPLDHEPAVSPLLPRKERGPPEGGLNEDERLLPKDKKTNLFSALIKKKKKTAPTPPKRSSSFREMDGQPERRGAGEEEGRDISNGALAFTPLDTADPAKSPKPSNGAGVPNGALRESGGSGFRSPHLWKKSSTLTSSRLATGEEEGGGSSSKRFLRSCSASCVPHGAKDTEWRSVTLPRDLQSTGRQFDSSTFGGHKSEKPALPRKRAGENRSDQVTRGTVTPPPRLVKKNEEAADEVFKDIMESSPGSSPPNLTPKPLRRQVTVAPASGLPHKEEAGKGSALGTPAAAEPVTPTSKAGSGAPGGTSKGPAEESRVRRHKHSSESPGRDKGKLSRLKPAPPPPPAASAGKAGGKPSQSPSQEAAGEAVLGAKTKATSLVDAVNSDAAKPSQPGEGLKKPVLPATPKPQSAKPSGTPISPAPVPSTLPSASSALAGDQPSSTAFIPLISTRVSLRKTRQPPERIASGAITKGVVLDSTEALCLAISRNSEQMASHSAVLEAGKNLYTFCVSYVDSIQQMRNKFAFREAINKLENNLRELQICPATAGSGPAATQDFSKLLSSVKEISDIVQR
DC50 (ER protein) [nM],"ability to degrade BRD4 protein (Western-blot, in words) (BRD4 [7])","ability to degrade BRD2 protein (Western-blot, in words) (BRD2 [8])",SMILES,degradation of BRD4 protein (Western-blot) (BRD4 [5]),degradation of BRD2 protein (Western-blot) (BRD2 [6]),other results
,significantly weaker ability to degrade,significantly weaker ability to degrade,"Cc1sc2c(c1C)C(c1ccc(Cl)cc1)=N[C@@H](CC(=O)NCCCCCNc1cccc3c1CN(C1CCC(=O)NC1=O)C3=O)c1nnc(C)n1-2 (stereo partly drawn) [SIAIS213110, 2-((S)-4-(4-chlorophenyl)-2,3,9-trimethyl-6H-thieno[3,2-f][1,2,4]triazolo[4,3-a][1,4]diazepin-6-yl)-N-(5-((2-(2,6-dioxopiperidin-3-yl)-1-oxoisoindolin-4-yl)amino)pentyl)acetamide]",significantly weaker ability to degrade BRD2 and BRD4 proteins,significantly weaker ability to degrade BRD2 and BRD4 proteins,
,significantly weaker ability to degrade,significantly weaker ability to degrade,"Cc1sc2c(c1C)C(c1ccc(Cl)cc1)=N[C@@H](CC(=O)NCCCCCOc1cccc3c1CN(C1CCC(=O)NC1=O)C3=O)c1nnc(C)n1-2 (stereo partly drawn) [SIAIS271066, 2-((S)-4-(4-chlorophenyl)-2,3,9-trimethyl-6H-thieno[3,2-f][1,2,4]triazolo[4,3-a][1,4]diazepin-6-yl)-N-(5-((2-(2,6-dioxopiperidin-3-yl)-1-oxoisoindolin-4-yl)oxy)pentyl)acetamide]",significantly weaker ability to degrade BRD2 and BRD4 proteins,significantly weaker ability to degrade BRD2 and BRD4 proteins,

# Further lines, the molecule ahead of its results:
SMILES,DC50 (ER protein) [nM],"ability to degrade BRD4 protein (Western-blot, in words) (BRD4 [7])","ability to degrade BRD2 protein (Western-blot, in words) (BRD2 [8])",degradation of BRD4 protein (Western-blot) (BRD4 [5]),degradation of BRD2 protein (Western-blot) (BRD2 [6]),other results
"Cc1nc(Nc2ncc(C(=O)Nc3c(C)cccc3Cl)s2)cc(N2CCN(C(=O)CNc3cccc4c3C(=O)N(C3CCC(=O)NC3=O)C4=O)CC2)n1 (centres unmarked) [SIAIS151072, N-(2-chloro-6-methylphenyl)-2-((6-(4-((2-(2,6-dioxopiperidin-3-yl)-1,3-dioxoisoindolin-4-yl)aminoacetyl)piperazin-1-yl)-2-methylpyrimidin-4-yl)amino)thiazole-5-carboxamide]",,,,,,"ability to degrade c-ABL protein (Western-blot, in words) (c-ABL [1]): significantly weaker ability to degrade; ability to degrade BCR-ABL protein (Western-blot, in words) (BCR-ABL [2]): significantly weaker ability to degrade; degradation of BCR-ABL protein (Western-blot) (BCR-ABL [3]): significantly weaker ability to degrade BCR-ABL and c-ABL proteins; degradation of c-ABL protein (Western-blot) (c-ABL [4]): significantly weaker ability to degrade BCR-ABL and c-ABL proteins"
"CCC(=C(c1ccc(O)cc1)c1ccc(OCCNC(=O)CCCCCCSc2cccc3c2C(=O)N(C2CCC(=O)NC2=O)C3=O)cc1)c1ccc(O)cc1 (centres unmarked) [SIAIS208170, N-(2-(4-(1,2-bis(4-hydroxyphenyl)but-1-en-1-yl)phenoxy)ethyl)-7-((2-(2,6-dioxopiperidin-3-yl)-1,3-dioxoisoindolin-4-yl)thio)heptanamide]",10,,,,,
"CCC(=C(c1ccc(O)cc1)c1ccc(OCCNC(=O)CCCCCCSc2cccc3c2CN(C2CCC(=O)NC2=O)C3=O)cc1)c1ccc(O)cc1 (centres unmarked) [SIAIS208171, N-(2-(4-(1,2-bis(4-hydroxyphenyl)but-1-en-1-yl)phenoxy)ethyl)-7-((2-(2,6-dioxopiperidin-3-yl)-1-oxoisoindolin-4-yl)thio)heptanamide]",10,,,,,
